# Literature values in patent publication US20140208977A1, “POLYDISPERSE COMPOSITIONS AND METHODS FOR ELIMINATING VOLATILE ORGANIC COMPOUNDS” (priority 2013, published 2014).
# Details: 77° F.
row,Structure (SMILES),Vapor Pressure [mmHg]
1,C[Si](C)(C)O[Si](C)(C)O[Si](C)(C)O[Si](C)(C)O[Si](C)(C)C [Dodecamethylpentasiloxane],0.7
2,C[Si]1(C)O[Si](C)(C)O[Si](C)(C)O[Si](C)(C)O1 [Octamethylcyclotetrasiloxane],1.3
3,C[Si]1(C)O[Si](C)(C)O[Si](C)(C)O[Si](C)(C)O[Si](C)(C)O1 [Decamethylcyclopentasiloxane],0.4
4,C[Si](C)(C)O[Si](C)(C)C [Hexamethyldisiloxane],31
5,C[Si]1(C)O[Si](C)(C)O[Si](C)(C)O[Si](C)(C)O[Si](C)(C)O[Si](C)(C)O1 [Dodecamethylcyclohexasiloxane],0.02
6,C[Si](C)(C)O[Si](C)(C)O[Si](C)(C)O[Si](C)(C)C [Decamethyltetrasiloxane],0.55
7,C[Si](C)(C)O[Si](C)(C)O[Si](C)(C)C [Octamethyltrisiloxane],3.9

# Details: 25° C.
row,Structure (SMILES),Water Solubility [µg/mL]
1,C[Si](C)(C)O[Si](C)(C)O[Si](C)(C)C [Octamethyltrisiloxane],0.035
2,C[Si]1(C)O[Si](C)(C)O[Si](C)(C)O1 [Hexamethylcyclotrisiloxane],1.56
